Key:
G401 cells = experiment: Cancer cell proliferation inhibition (Cell Counting Kit-8), rhabdoid tumor cell line; assay type: cell-based; details: Homo sapiens, G-401, 264 h, 1000 nM, cultured seven to 11 days; read-out: % inhibition rate G401
Source text: (§1) Among solid cancer cells, in G401 cells in which expression of SMARCB1, which is a member of switch/sucrosenon-fermenting (SWI/SNF), is defective as a cell line of a rhabdoid tumor in which a therapeutic effect may be expected through dual inhibition of EZH1/2, and MKN-45 cells in which expression of ARID1A, which is a member of SWI/SNF, is defective as a gastric cancer cell line, a proliferation inhibitory ability of the 1,3-benzodioxole derivative compounds represented by chemical formula I of the present invention was evaluated.
(§2) Each cell line (G401 cell, MKN-45 cell, Lovo cell, SW-13 cell, MIA-PaCa-2, NCI-H1299) of Table 2 below was cultured using RPMI1640, McCoy's 5a, L-15 or DMEM containing 10% fetal bovine serum, and the cells were seeded into wells of a 96-well culture dish at 100 to 1,000 cells each, and a test substance 1000 nM was cultured for seven to 11 days after drug treatment. After the culture, the cells were measured according to a manufacturer's instructions using Cell Counting Kit-8, and a cell proliferation inhibitory effect (% inhibition rate) of the test substance was obtained.
(§3) The cell proliferation inhibitory effect (% inhibition rate) of the test substance was calculated using a following equation. % inhibition rate = {1−(testgroup/controlgroup)} X 100 [formula]

EZH2 = EZH2 (Homo sapiens, UniProt Q15910); experiment: AlphaLISA enzyme activity inhibition, EZH2; assay type: biochemical; details: 5nM test substance
Protocol: (§4) In order to confirm the EZH1 and/or EZH2 activity inhibitory effect of the 1,3-benzodioxole derivative compounds represented by chemical formula I of the present invention, the activity was measured using an AlphaLISA test method. The test substance dissolved in dimethylsulfoxide (DMSO) was diluted in a test solution (20 mM Tris pH 8.0, 0.1% BSA, 0.01% Triton X-100, 0.5 mM DTT) according to a final treatment concentration (5 nM or 10 nM) and mixed with EZH1 and EZH2, respectively, and then histone H3 peptide and S-adenosylmethionine (SAM) were added to initiate an enzyme reaction. An acceptor bead was added thereto after reaction for two hours and subjected to an additional reaction for one hour, after which a donor bead was added thereto. After an additional reaction for 30 minutes, the reaction was completed. An activity was measured using the Magellan program on a Spark10M instrument. DMSO was used as a control group, an inhibition rate of enzyme activity was calculated using a following equation, and the results thereof are shown in Table 1 below. [formula]

NCI-H1299 cells = experiment: Cancer cell proliferation inhibition (Cell Counting Kit-8), lung cancer cell line; assay type: cell-based; details: Homo sapiens, NCI-H1299, 264 h, 1000 nM, cultured seven to 11 days; read-out: % inhibition rate NCI-H129 9
Protocol: (§5) In addition, as one example of solid cancer in which an overexpression of EZH2 and a consequent disease association therebetween is reported, a proliferation inhibitory activity of the 1,3-benzodioxole derivative compounds represented by chemical formula I of the present invention was evaluated in Lovo cells as a colorectal cancer cell line, SW-13 cells as an adrenal cancer cell line, MIA-PaCa-2 cells as a pancreatic cancer cell line, and NCI-H1299 cells as a lung cancer cell line.
as §2, §3

MKN-45 cells = experiment: Cancer cell proliferation inhibition (Cell Counting Kit-8), gastric cancer cell line; assay type: cell-based; details: Homo sapiens, MKN-45, 264 h, 1000 nM, cultured seven to 11 days; read-out: % inhibition rate MKN -45
Source text: as §1, §2, §3

MIA-PaCa-2 cells = experiment: Cancer cell proliferation inhibition (Cell Counting Kit-8), pancreatic cancer cell line; assay type: cell-based; details: Homo sapiens, MIA PaCa-2, 264 h, 1000 nM, cultured seven to 11 days; read-out: % inhibition rate MIA-Paca2
Protocol: as §5, §2, §3

EZH1 = EZH1 (Homo sapiens, UniProt Q92800); experiment: AlphaLISA enzyme activity inhibition, EZH1; assay type: biochemical; details: 5nM test substance
Protocol: as §4

SW-13 cells = experiment: Cancer cell proliferation inhibition (Cell Counting Kit-8), adrenal cancer cell line; assay type: cell-based; details: Homo sapiens, SW13, 264 h, 1000 nM, cultured seven to 11 days; read-out: % inhibition rate SW-13
Protocol: as §5, §2, §3

Lovo cells = experiment: Cancer cell proliferation inhibition (Cell Counting Kit-8), colorectal cancer cell line; assay type: cell-based; details: Homo sapiens, LoVo, 264 h, 1000 nM, cultured seven to 11 days; read-out: % inhibition rate LoVo
Protocol: as §5, §2, §3

EZH2, sequence (Q15910 whole entry, species assumed): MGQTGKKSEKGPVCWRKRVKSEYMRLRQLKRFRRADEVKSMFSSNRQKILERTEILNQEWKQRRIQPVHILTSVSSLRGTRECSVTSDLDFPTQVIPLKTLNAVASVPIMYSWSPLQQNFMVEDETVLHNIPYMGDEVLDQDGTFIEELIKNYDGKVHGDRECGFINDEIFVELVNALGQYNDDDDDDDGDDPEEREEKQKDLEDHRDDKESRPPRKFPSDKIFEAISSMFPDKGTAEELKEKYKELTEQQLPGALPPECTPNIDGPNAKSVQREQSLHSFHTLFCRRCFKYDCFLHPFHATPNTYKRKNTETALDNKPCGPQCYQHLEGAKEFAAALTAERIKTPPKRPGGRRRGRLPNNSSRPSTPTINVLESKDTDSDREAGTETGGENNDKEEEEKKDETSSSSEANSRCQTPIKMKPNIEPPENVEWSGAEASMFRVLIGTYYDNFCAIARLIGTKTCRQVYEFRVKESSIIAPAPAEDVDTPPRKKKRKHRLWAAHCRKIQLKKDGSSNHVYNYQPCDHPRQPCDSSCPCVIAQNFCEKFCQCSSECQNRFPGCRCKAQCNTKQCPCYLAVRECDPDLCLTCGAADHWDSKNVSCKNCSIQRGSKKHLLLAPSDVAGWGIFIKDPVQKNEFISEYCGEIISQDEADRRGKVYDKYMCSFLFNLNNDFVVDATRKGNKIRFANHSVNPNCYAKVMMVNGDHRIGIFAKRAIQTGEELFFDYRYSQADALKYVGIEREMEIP
EZH2, sequence (O75530 whole entry partner, species assumed): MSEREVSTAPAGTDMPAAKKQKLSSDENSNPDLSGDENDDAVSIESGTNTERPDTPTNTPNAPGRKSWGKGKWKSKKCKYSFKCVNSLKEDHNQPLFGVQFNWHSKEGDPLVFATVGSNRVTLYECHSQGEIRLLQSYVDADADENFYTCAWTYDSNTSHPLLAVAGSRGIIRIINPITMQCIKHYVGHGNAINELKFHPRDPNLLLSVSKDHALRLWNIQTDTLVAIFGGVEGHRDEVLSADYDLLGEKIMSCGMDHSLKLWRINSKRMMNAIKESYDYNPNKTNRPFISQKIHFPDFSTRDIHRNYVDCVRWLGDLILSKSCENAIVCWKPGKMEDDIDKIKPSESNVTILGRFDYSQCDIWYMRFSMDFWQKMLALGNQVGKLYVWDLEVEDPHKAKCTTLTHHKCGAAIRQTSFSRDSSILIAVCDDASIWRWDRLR
EZH2, sequence (Q15022 whole entry partner, species assumed): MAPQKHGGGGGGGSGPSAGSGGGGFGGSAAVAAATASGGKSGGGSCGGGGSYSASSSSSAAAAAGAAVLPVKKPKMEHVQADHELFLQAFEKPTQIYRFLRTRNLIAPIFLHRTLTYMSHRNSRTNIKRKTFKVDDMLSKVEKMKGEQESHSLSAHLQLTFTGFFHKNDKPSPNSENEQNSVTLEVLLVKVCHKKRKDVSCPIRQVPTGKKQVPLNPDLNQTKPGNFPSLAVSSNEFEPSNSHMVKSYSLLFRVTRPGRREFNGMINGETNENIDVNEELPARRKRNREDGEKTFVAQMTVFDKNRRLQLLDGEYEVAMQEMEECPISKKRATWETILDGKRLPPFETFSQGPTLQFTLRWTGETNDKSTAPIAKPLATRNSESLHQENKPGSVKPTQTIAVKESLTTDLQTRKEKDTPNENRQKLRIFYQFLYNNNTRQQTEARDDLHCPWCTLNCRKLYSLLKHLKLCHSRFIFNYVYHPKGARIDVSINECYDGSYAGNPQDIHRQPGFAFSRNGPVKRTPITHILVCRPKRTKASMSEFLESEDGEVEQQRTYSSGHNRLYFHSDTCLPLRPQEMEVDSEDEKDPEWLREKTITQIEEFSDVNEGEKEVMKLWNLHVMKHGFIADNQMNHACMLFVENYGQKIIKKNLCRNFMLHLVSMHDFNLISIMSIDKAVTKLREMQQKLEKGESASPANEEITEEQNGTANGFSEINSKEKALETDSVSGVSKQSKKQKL
EZH1, sequence (Q92800 whole entry, species assumed): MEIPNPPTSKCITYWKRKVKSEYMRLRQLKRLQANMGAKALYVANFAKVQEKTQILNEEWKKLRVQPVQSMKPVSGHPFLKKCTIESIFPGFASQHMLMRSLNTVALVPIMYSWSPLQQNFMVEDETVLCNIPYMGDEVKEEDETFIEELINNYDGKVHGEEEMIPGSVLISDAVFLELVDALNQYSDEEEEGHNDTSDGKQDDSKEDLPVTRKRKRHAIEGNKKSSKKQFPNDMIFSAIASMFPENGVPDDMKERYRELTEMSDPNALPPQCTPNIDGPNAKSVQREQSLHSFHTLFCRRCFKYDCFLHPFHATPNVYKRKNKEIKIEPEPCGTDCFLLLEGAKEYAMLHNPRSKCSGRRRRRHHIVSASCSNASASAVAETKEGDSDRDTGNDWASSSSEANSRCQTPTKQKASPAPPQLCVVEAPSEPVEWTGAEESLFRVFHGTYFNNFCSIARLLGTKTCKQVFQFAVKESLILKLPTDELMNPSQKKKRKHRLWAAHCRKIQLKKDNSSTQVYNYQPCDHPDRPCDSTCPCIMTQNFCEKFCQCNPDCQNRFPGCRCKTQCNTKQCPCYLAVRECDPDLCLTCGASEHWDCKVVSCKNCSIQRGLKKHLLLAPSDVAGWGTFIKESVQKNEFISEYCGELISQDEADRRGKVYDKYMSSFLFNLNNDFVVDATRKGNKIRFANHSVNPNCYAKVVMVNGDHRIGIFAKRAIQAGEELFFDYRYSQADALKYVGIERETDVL
EZH1, sequence (O75530 whole entry partner, species assumed): as the sequence (O75530 whole entry partner, species assumed) above
EZH1, sequence (Q15022 whole entry partner, species assumed): as the sequence (Q15022 whole entry partner, species assumed) above

Compound | inhibition at 1 µM (G401 cells) [%] | inhibition at 0.005 µM (EZH2) [%] | inhibition at 1 µM (NCI-H1299 cells) [%] | inhibition at 1 µM (MKN-45 cells) [%] | inhibition at 1 µM (MIA-PaCa-2 cells) [%] | inhibition at 0.005 µM (EZH1) [%] | inhibition at 1 µM (SW-13 cells) [%] | inhibition at 1 µM (Lovo cells) [%]
CSc1cc(C)[nH]c(=O)c1CNC(=O)c1cc(-c2cnc(N3CCCC3)nc2)c2c(c1C)OC(C)([C@H]1CC[C@H](N(C)C)CC1)O2 (relative stereo) [Compound 5, 2-(trans-4-(dimethylamino)cyclohexyl)-2,4-dimethyl-N-((6-methyl-4-(methylthio)-2-oxo-1,2-dihydropyridin-3-yl)methyl)-7-(2-(pyrrolidin-1-yl)pyrimidin-5-yl)benzo[d][1,3]dioxole-5-carboxamide] | 30 to 70 | 99.5 | ≤ 30 | ≤ 30 | ≤ 30 | 95.1 | 30 to 70 | 30 to 70
CSc1cc(C)[nH]c(=O)c1CNC(=O)c1cc(-c2ccc(CN3CCOCC3)cc2)c2c(c1C)OC(C)([C@H]1CC[C@H](N(C)C)CC1)O2 (relative stereo) [Compound 6, 2-(trans-4-(dimethylamino)cyclohexyl)-2,4-dimethyl-N-((6-methyl-4-(methylthio)-2-oxo-1,2-dihydropyridin-3-yl)methyl)-7-(4-(morpholinomethyl)phenyl)benzo[d][1,3]dioxole-5-carboxamide] | 30 to 70 | 98.2 | ≤ 30 | ≤ 30 | ≤ 30 | 86.7 | 30 to 70 | 30 to 70
CSc1cc(C)[nH]c(=O)c1CNC(=O)c1cc(-c2ccc3c(ccn3C)c2)c2c(c1C)OC(C)([C@H]1CC[C@H](N(C)C)CC1)O2 (relative stereo) [Compound 7, 2-(trans-4-(dimethylamino)cyclohexyl)-2,4-dimethyl-7-(1-methyl-1H-indol-5-yl)-N-((6-methyl-4-(methylthio)-2-oxo-1,2-dihydropyridin-3-yl)methyl)benzo[d][1,3]dioxole-5-carboxamide] | 30 to 70 | 96 | ≤ 30 | 30 to 70 | ≤ 30 | 81.4 | 30 to 70 | 30 to 70
CSc1cc(C)[nH]c(=O)c1CNC(=O)c1cc(-c2cnc(N3CCC(F)(F)CC3)nc2)c2c(c1C)OC(C)([C@H]1CC[C@H](N(C)C)CC1)O2 (relative stereo) [Compound 8, 7-(2-(4,4-difluoropiperidin-1-yl)pyrimidin-5-yl)-2-(trans-4-(dimethylamino)cyclohexyl)-2,4-dimethyl-N-((6-methyl-4-(methylthio)-2-oxo-1,2-dihydropyridin-3-yl)methyl)benzo[d][1,3]dioxole-5-carboxamide] | 30 to 70 | 96.1 | ≤ 30 | 30 to 70 | ≤ 30 | 85.6 | 30 to 70 | 30 to 70
CSc1cc(C)[nH]c(=O)c1CNC(=O)c1cc(-c2ccc(N3CCOCC3)cc2)c2c(c1C)OC(C)([C@H]1CC[C@H](N(C)C)CC1)O2 (relative stereo) [Compound 9, 2-(trans-4-(dimethylamino)cyclohexyl)-2,4-dimethyl-N-((6-methyl-4-(methylthio)-2-oxo-1,2-dihydropyridin-3-yl)methyl)-7-(4-morpholinophenyl)benzo[d][1,3]dioxole-5-carboxamide] | 30 to 70 | 98.6 | ≤ 30 | ≤ 30 | ≤ 30 | 86.1 | 30 to 70 | 30 to 70
CSc1cc(C)[nH]c(=O)c1CNC(=O)c1cc(-c2ccc(F)cc2)c2c(c1C)OC(C)([C@H]1CC[C@H](N(C)C)CC1)O2 (relative stereo) [Compound 10, 2-(trans-4-(dimethylamino)cyclohexyl)-7-(4-fluorophenyl)-2,4-dimethyl-N-((6-methyl-4-(methylthio)-2-oxo-1,2-dihydropyridin-3-yl)methyl)benzo[d][1,3]dioxole-5-carboxamide] | 30 to 70 | 98.7 | ≤ 30 | ≤ 30 | ≤ 30 | 82.8 | 30 to 70 | ≥ 70
CSc1cc(C)[nH]c(=O)c1CNC(=O)c1cc(-c2ccsc2)c2c(c1C)OC(C)([C@H]1CC[C@H](N(C)C)CC1)O2 (relative stereo) [Compound 11, 2-(trans-4-(dimethylamino)cyclohexyl)-2,4-dimethyl-N-((6-methyl-4-(methylthio)-2-oxo-1,2-dihydropyridin-3-yl)methyl)-7-(thiophen-3-yl)benzo[d][1,3]dioxole-5-carboxamide] | 30 to 70 | 98.9 | 30 to 70 | ≤ 30 | ≤ 30 | 82.9 | 30 to 70 | ≥ 70
COc1ccc(F)cc1-c1cc(C(=O)NCc2c(SC)cc(C)[nH]c2=O)c(C)c2c1OC(C)([C@H]1CC[C@H](N(C)C)CC1)O2 (relative stereo) [Compound 12, 2-(trans-4-(dimethylamino)cyclohexyl)-7-(5-fluoro-2-methoxyphenyl)-2,4-dimethyl-N-((6-methyl-4-(methylthio)-2-oxo-1,2-dihydropyridin-3-yl)methyl)benzo[d][1,3]dioxole-5-carboxamide] | 30 to 70 | 99.2 | ≤ 30 | ≤ 30 | ≤ 30 | 80.5 | 30 to 70 | 30 to 70
CSc1cc(C)[nH]c(=O)c1CNC(=O)c1cc(-c2c(C)noc2C)c2c(c1C)OC(C)([C@H]1CC[C@H](N(C)C)CC1)O2 (relative stereo) [Compound 13, 2-(trans-4-(dimethylamino)cyclohexyl)-7-(3,5-dimethylisoxazol-4-yl)-2,4-dimethyl-N-((6-methyl-4-(methylthio)-2-oxo-1,2-dihydropyridin-3-yl)methyl)benzo[d][1,3]dioxole-5-carboxamide] | 30 to 70 | 97.6 | ≤ 30 | ≤ 30 | ≤ 30 | 53.7 | ≤ 30 | 30 to 70
CSc1cc(C)[nH]c(=O)c1CNC(=O)c1cc(-c2ccc(F)nc2F)c2c(c1C)OC(C)([C@H]1CC[C@H](N(C)C)CC1)O2 (relative stereo) [Compound 14, 7-(2,6-difluoropyridin-3-yl)-2-(trans-4-(dimethylamino)cyclohexyl)-2,4-dimethyl-N-((6-methyl-4-(methylthio)-2-oxo-1,2-dihydropyridin-3-yl)methyl)benzo[d][1,3]dioxole-5-carboxamide] | 30 to 70 | 97.6 | ≤ 30 | ≤ 30 | ≤ 30 | 86.4 | 30 to 70 | ≥ 70

From patent publication EP4740948A1 (Dong Wha Pharm. Co., Ltd., priority 2023, dated 2025)
